Patent US20260014171A1, “COMPOSITION FOR THE USE IN THE TREATMENT OF POLYCYSTIC OVARY SYNDROME” (LO.LI. PHARMA S.R.L., priority 2023, published 2026)

Key:
Type in all cases: cell-based
IGFBP-1 [1] = assay: IGFBP-1 gene expression by Real Time PCR in co-cultured bovine theca and granulosa cells; conditions: Phase 1: FSH (46 h), LH + insulin, then exogenous IGF-1 100 ng/ml 48 h; vs untreated control
Procedure: (§1) The anti-proliferative activity of Dioscorea villosa, Vitamin D, and α-lactalbumin was investigated (alone or in combination) in cultured bovine theca and granulosa cells (co-culture). To investigate the properties of these natural molecules, the inventors evaluated their effect on cell viability, proliferation, and apoptosis.
(§2) Bovine theca and granulosa were co-cultured, (DMEM, High glucose 5% FBS, […], 1% Pen/Strep, 1% Amphotericin B, 1% Glutamine) for 7 days. The cells were grown in petri dishes and treated shortly before reaching 80% confluence. […]
(§3) The expression of insuline like growth factor IGF-1 and IGF-BP1 insulin like growth factor binding protein 1 were both measured by Real Time PCR and western blot, to investigate the effects of the treatment with the raw materials; namely, Dioscorea villosa, Vitamin D and α-lactalbumin alone or in combination.
(§4) The results were measured as 2^−ΔΔCt for the mRNA assay. Both for the Real Time PCR and western blot analyses, the data are expressed as fold increases in relation to the housekeeping genes. Proliferation (ki67 western blot assay) and apoptosis (caspase-9 western blot assay) assessed the expression as per the experimental conditions reported above.
(§5) Co-cultured bovine theca and granulosa cells; grown as described in phase 1. The expression of IGF-1 and IGF-BP1 were analyzed after treatment with Dioscorea villosa. […]

caspase-9 [2] = assay: caspase-9 gene expression (mRNA) in co-cultured bovine theca and granulosa cells; conditions: Phase 1: FSH (46 h), LH + insulin, then exogenous IGF-1 100 ng/ml 48 h; vs untreated control
Procedure: as §1, §2, §4, §5
(§6) The results were measured as […] for the mRNA assay. Both for the Real Time PCR and western blot analyses, the data are expressed as fold increases in relation to the housekeeping genes. […]
(§7) The results were measured as […] for the mRNA assay. […]

IGFBP-1 [3] = assay: IGFBP-1 protein quantification by western blot in co-cultured bovine theca and granulosa cells; conditions: Phase 1: FSH (46 h), LH + insulin, then exogenous IGF-1 100 ng/ml 48 h; vs untreated control
Procedure: as §1, §2, §3, §4, §5

ki-67 [4] = assay: Proliferation (ki67 western blot assay) in co-cultured bovine theca and granulosa cells
Procedure: as §1, §2, §4, §5, §6, §7

ki-67 [5] = assay: ki-67 gene expression (mRNA) in co-cultured bovine theca and granulosa cells; conditions: Phase 1: FSH (46 h), LH + insulin, then exogenous IGF-1 100 ng/ml 48 h; vs untreated control
Procedure: as §1, §2, §4, §5, §6, §7

IGF-1 [6] = assay: IGF-1 gene expression by Real Time PCR in co-cultured bovine theca and granulosa cells; conditions: Phase 1: FSH (46 h), LH 1.5 UI/ml + insulin 100 ng/ml 10 min, then exogenous IGF-1 100 ng/ml 48 h; vs untreated control
Procedure: as §1, §2, §3, §4, §5

caspase-9 [7] = assay: Apoptosis (caspase-9 western blot assay) in co-cultured bovine theca and granulosa cells
Procedure: as §1, §2, §4, §5, §6, §7

IGF-1 [8] = assay: IGF-1 protein quantification by western blot in co-cultured bovine theca and granulosa cells; conditions: Phase 1: FSH (46 h), LH + insulin, then exogenous IGF-1 100 ng/ml 48 h; vs untreated control
Procedure: as §1, §2, §3, §4, §5

[9] = Phase 1: FSH (46 h), LH + insulin, then exogenous IGF-1 100 ng/ml 48 h, vs untreated control
[10] = Results text: treatment with IGF-1 (48 h)

IGF-1: exogenous insulin like growth factor IGF-1, 100 ng/ml for 48 h, used as proliferative stimulus
gene expression of IGFBP-1 (mRNA) (IGFBP-1 [1]): not significant | gene expression of caspase-9 (mRNA) (caspase-9 [2]): not significant | quantification of IGFBP-1 protein (IGFBP-1 [3]): not significant | quantification of ki-67 protein (ki-67 [4]; [9]): significant increase | proliferative effect (ki-67 [4]; [10]): strong proliferative effect | gene expression of ki-67 (mRNA) (ki-67 [5]): significant increase | gene expression of IGF-1 (mRNA) (IGF-1 [6]): significant increase | quantification of caspase-9 protein (caspase-9 [7]; [9]): not significant | rate of apoptosis observed in the cell culture (caspase-9 [7]; [10]): reduction in the rate of apoptosis | quantification of IGF-1 protein (IGF-1 [8]): significant increase
